Values quoted from earlier work as cited in patent US6995188B2 (priority 2002, dated 2006).
Like-named read-outs stand apart in the source and are kept apart here.

Experiments:
[1] = system: P388 lymphocytic leukemia cells; details: mouse, in vivo, ip, cited from earlier work
[2] = system: APL and non-APL cell lines; details: compared with arsenic trioxide; cited from earlier work
[3] = system: patients with advanced leukemia; details: 8 patients, 3 days per week for 3 consecutive weeks; cited from earlier work

2,3,4,6-tetra-O-acetyl-1-S-hydroxyethylmethyl-1-thio-β-D-glucopyranose [Compound 4]
% T/C ([1]; 100 mg/kg): 116%

C[As](C)SCC(N)C(=O)O (racemic) [Compound 10, S-dimethylarsino-DL-cysteine]
% T/C ([1]; 50 mg/kg): 110%

CCCC[As](CCCC)S[C@@H]1O[C@H](COC(C)=O)[C@@H](OC(C)=O)[C@H](OC(C)=O)[C@H]1OC(C)=O [Compound 1, 2,3,4,6-tetra-O-acetyl-1-S-dibutylarsino-1-thio-β-D-glucopyranose]
% T/C ([1]; 100 mg/kg): 117%

CCC[As](CCC)S[C@@H]1O[C@H](COC(C)=O)[C@@H](OC(C)=O)[C@H](OC(C)=O)[C@H]1OC(C)=O [Compound 2, 2,3,4,6-tetra-O-acetyl-1-S-dipropylarsino-1-thio-β-D-glucopyranose]
% T/C ([1]; 200 mg/kg): 124%

CC[As](CC)S[C@@H]1O[C@H](COC(C)=O)[C@@H](OC(C)=O)[C@H](OC(C)=O)[C@H]1OC(C)=O [Compound 3, 2,3,4,6-tetra-O-acetyl-1-S-diethylarsino-1-thio-β-D-glucopyranose]
% T/C ([1]; 100 mg/kg): 180%

CCCCCCCCCCCCCCCC[As](CCCCCCCCCCCCCCCC)S[C@@H]1O[C@H](COC(C)=O)[C@@H](OC(C)=O)[C@H](OC(C)=O)[C@H]1OC(C)=O [Compound 5, 2,3,4,6-tetra-O-acetyl-1-S-dihexadecylarsino-1-thio-β-D-glucopyranose]
% T/C ([1]; 50 mg/kg): 125%

CC(=O)OC[C@H]1O[C@@H](S[As](C2CCCCC2)C2CCCCC2)[C@H](OC(C)=O)[C@@H](OC(C)=O)[C@@H]1OC(C)=O [Compound 6, 2,3,4,6-tetra-O-acetyl-1-S-dicyclohexylarsino-1-thio-β-D-glucopyranose]
% T/C ([1]; 400 mg/kg): Toxic

CC(C)CCC[C@@H](C)[C@H]1CC[C@H]2[C@@H]3CC=C4C[C@@H]([Se][As](C)C)CC[C@]4(C)[C@H]3CC[C@]12C [Compound 15, Se-dimethylarsino-selenocholesterol]
% T/C ([1]; 200 mg/kg): 129%

CC(=O)OC[C@H]1O[C@@H](S[As](C)C)[C@H](OC(C)=O)[C@@H](OC(C)=O)[C@H]1OC(C)=O [Compound 16, 2,3,4,6-tetra-O-acetyl-1-S-dimethylarsino-1-thio-β-D-galactopyranose]
% T/C ([1]; 100 mg/kg): 129%

CC(=O)N[C@@H]1[C@@H](OC(C)=O)[C@H](OC(C)=O)[C@@H](COC(C)=O)O[C@H]1S[As](C)C [Compound 18, 2-acetamido-3,4,6-tri-O-acetyl-2-deoxy-1-S-dimethylarsino-1-thio-β-D-glucopyranose]
% T/C ([1]; 50 mg/kg): 136%

CC(=O)N[C@H]1[C@@H](OC(C)=O)O[C@H](CS[As](C)C)[C@@H](OC(C)=O)[C@@H]1OC(C)=O [Compound 20, 2-acetamido-1,3,4-tri-O-acetyl-2-deoxy-6-S-dimethylarsino-6-thio-α-D-glucopyranose]
% T/C ([1]; 100 mg/kg): 136%

Nc1nc(N)nc(Nc2ccc([As]3SCC(CO)S3)cc2)n1 (centres unmarked) [melarsoprol]
activity against APL and non-APL cell lines [2]: activity at least equivalent to that of arsenic trioxide | antitumor effects [3]: Only one patient (with chronic lymphocytic leukemia) displayed antitumor effects | side effects [3]: most experienced neurological side effects
